# Test system: 282377-053-R-J1-PDC complex spheroid viability
# Assay: Anticancer human tumor 282377-053-R-J1-PDC patient-derived colon adenocarcinoma cell line growth inhibition [POLQ]
# Conditions: for IC50: curve of first compound; for viability, T/C: stronger effect = lower value
# Description: Multicellular complex tumor spheroid response to Polymerase (POL) inhibitors (novobiocin, ART-558, RP6685) in combination with a variety of drugs and investigational agents in selected tumor cell lines
# The POL inhibitors (novobiocin, ART-558, and RP6685) were evaluated both individually and in combination with standard of care and investigational anticancer small molecules within a complex spheroid model of solid tumors. . Complex spheroids include a stromal component modeled by human endothelial cells (HUVEC) and fibroblasts modeled by human mesenchymal stem cells (MSCs). The concentration ranges selected for each drug and investigational agent were based upon clinically achievable concentrations if the clinical Cmax of the agent was known.
# Compounds. The drugs and investigational agents: novobiocin (NSC847541), ART-558 (NSC835418), RP-6685 (NSC848927), peposertib (NSC802822), ceralasertib (NSC780249), elimusertib (NSC800525), camonsertib (NSC841442), AZD-1390 (NSC803789), olaparib (NSC753686), talazoparib (NSC767125), rucaparib (NSC756644), sotorasib (NSC818433), MRTX-1133 (NSC836407), SN-38 (NSC673596), topotecan (NSC609699), epotoside (NSC141540), doxorubicin (NSC123127), gemcitabine (NSC613327), 5-fluorouracil (NSC19893), paclitaxel (NSC125973), vemurafenib (NSC761431), MSA-2 (NSC828583), SN-011 (NSC837082), adavosertib (NSC754352), prexasertib (NSC758257), carboplatin (NSC241240) and oxaliplatin (NSC266046), were obtained from the National Cancer Institute (NCI) Developmental Therapeutics Program Chemical Repository (21). The FDA-approved anticancer drug set is available from the Developmental Therapeutics Program at https://dtp.cancer.gov/organization/dscb/obtaining/. […] The stock solutions were prepared in dimethyl sulfoxide (DMSO, Sigma-Aldrich, St. Louis, MO, cat. D2650), except for the platinum compounds which were prepared in saline (Quality Biological, Gaithersburg, MD, cat. 114-055-101), at 800-fold the tested concentration and stored at -70 degrees C prior to their use. All drugs and investigational agents were tested over a range starting from a high concentration at or near the clinical Cmax and decreasing in half-log increments. If the clinical Cmax for an agent had not been determined, the highest concentration tested was 10 microM, except for SN-38, which was tested at a high concentration of 1 microM.
# Cell Culture. All cells were maintained in an incubator at 37 degrees C and 5% CO2 with 95% humidity. The PDC lines were cultured according to standard operating procedures established by the NCI PDMR (https://pdmr.cancer.gov). Table 3 of the manuscript, lists the cell lines along with the number of the three cell types plated to form the mct-spheroids and media for tumor cell growth. After thawing, all PDC lines, except 997537-175-T-J1-PDC and 415267-285-R-J2-PDC, were cultured in Matrigel-coated flasks prepared with a working solution of 1X Ham's F-12 nutrient mix, without supplementation (Thermo Fisher Scientific, cat. 11765054), 100 U/mL penicillin-streptomycin (Thermo Fisher Scientific, cat. 15140122), and 2.5% Matrigel (Corning Inc., Corning, NY, cat. 354248) for the first three passages. The two PDC lines 997537-175-T-J1-PDC and 415267-285-R-J2-PDC were cultured on uncoated flasks. The 857933-349-R-J2-PDC line was cultured in 6C/Colon 1B media containing advanced DMEM/F-12 (Thermo Fisher Scientific, cat. 12634028), 10 mM HEPES (Thermo Fisher Scientific, cat. 15630080), 1X GlutaMAX supplement (Thermo Fisher Scientific, cat. 35050061), 0.1 mg/mL primocin (InvivoGen, San Diego, CA, cat. ant-pm-2), 10% defined fetal bovine serum, heat inactivated (HyClone Laboratories Inc., Logan, UT, cat. SH30070.03HI), 50% L-WRN conditioned media (ATCC, cat. CRL-3276), 1.25 mM N-Acetyl-L-cysteine (Sigma-Aldrich, cat. A9165), 10 mM nicotinamide (Sigma-Aldrich, cat. N0636), 1X B-27 supplement (Thermo Fisher Scientific, cat. 17504044), 1X N-2 supplement (Thermo Fisher Scientific, cat. […]
# [1] = second compound 0.0316 µM, first compound 0.0316 µM
# [2] = second compound 0.0316 µM, first compound 0.1 µM
# [3] = second compound 0.0316 µM, first compound 0.316 µM
# [4] = second compound 0.0316 µM, first compound 1 µM
# [5] = second compound 0.0316 µM, first compound 3.16 µM
# [6] = second compound 0.0316 µM, first compound 10 µM
# [7] = second compound 0.1 µM, first compound 0.0316 µM
# [8] = second compound 0.1 µM, first compound 0.1 µM
# [9] = second compound 0.1 µM, first compound 0.316 µM
# [10] = second compound 0.1 µM, first compound 1 µM
# [11] = second compound 0.1 µM, first compound 3.16 µM
# [12] = second compound 0.1 µM, first compound 10 µM
# [13] = second compound 0.316 µM, first compound 0.0316 µM
# [14] = second compound 0.316 µM, first compound 0.1 µM
# [15] = second compound 0.316 µM, first compound 0.316 µM
# [16] = second compound 0.316 µM, first compound 1 µM
# [17] = second compound 0.316 µM, first compound 3.16 µM
# [18] = second compound 0.316 µM, first compound 10 µM
# [19] = second compound 1 µM, first compound 0.0316 µM
# [20] = second compound 1 µM, first compound 0.1 µM
# [21] = second compound 1 µM, first compound 0.316 µM
# [22] = second compound 1 µM, first compound 1 µM
# [23] = second compound 1 µM, first compound 3.16 µM
# [24] = second compound 1 µM, first compound 10 µM
# [25] = second compound 3.16 µM, first compound 0.0316 µM
# [26] = second compound 3.16 µM, first compound 0.1 µM
# [27] = second compound 3.16 µM, first compound 0.316 µM
# [28] = second compound 3.16 µM, first compound 1 µM
# [29] = second compound 3.16 µM, first compound 3.16 µM
# [30] = second compound 3.16 µM, first compound 10 µM
# [31] = second compound 10 µM, first compound 0.0316 µM
# [32] = second compound 10 µM, first compound 0.1 µM
# [33] = second compound 10 µM, first compound 0.316 µM
# [34] = second compound 10 µM, first compound 1 µM
# [35] = second compound 10 µM, first compound 3.16 µM
# [36] = second compound 10 µM, first compound 10 µM
# 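Further: spheroids exposed to compounds for seven days.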
# 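Wherever viability, T/C is given: 100% = DMSO vehicle control viability.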
smiles,measurement,setting,value
CCc1cc2c(N3CCc4c(cc(Cn5ccnc5)cc4-c4cn(C)nc4C(F)(F)F)C3=O)ccnc2c(OC)n1 + Nc1ccc(C#CCN(C(=O)Cc2ncc(C(F)(F)F)cc2C(F)(F)F)c2ccc(F)cc2)nn1,IC50,second compound 0.0316 µM,> 10 µM
same,IC50,second compound 0.1 µM,> 10 µM
same,IC50,second compound 0.316 µM,> 10 µM
same,IC50,second compound 1 µM,> 10 µM
same,IC50,second compound 3.16 µM,> 10 µM
same,IC50,second compound 10 µM,> 10 µM
same,"viability, T/C",[1],92.7%
same,"viability, T/C",[2],98.8%
same,"viability, T/C",[3],102%
same,"viability, T/C",[4],106%
same,"viability, T/C",[5],94.1%
same,"viability, T/C",[6],111%
same,"viability, T/C",[7],75.9%
same,"viability, T/C",[8],73.9%
same,"viability, T/C",[9],72.2%
same,"viability, T/C",[10],77.1%
same,"viability, T/C",[11],107%
same,"viability, T/C",[12],115%
same,"viability, T/C",[13],90.3%
same,"viability, T/C",[14],78.8%
same,"viability, T/C",[15],86.3%
same,"viability, T/C",[16],90.1%
same,"viability, T/C",[17],111%
same,"viability, T/C",[18],87.4%
same,"viability, T/C",[19],104%
same,"viability, T/C",[20],75.7%
same,"viability, T/C",[21],84.1%
same,"viability, T/C",[22],90.5%
same,"viability, T/C",[23],102%
same,"viability, T/C",[24],108%
same,"viability, T/C",[25],103%
same,"viability, T/C",[26],92.7%
same,"viability, T/C",[27],88.8%
same,"viability, T/C",[28],109%
same,"viability, T/C",[29],96.7%
same,"viability, T/C",[30],123%
same,"viability, T/C",[31],95.5%
same,"viability, T/C",[32],106%
same,"viability, T/C",[33],113%
same,"viability, T/C",[34],108%
same,"viability, T/C",[35],138%
same,"viability, T/C",[36],127%
COc1ccc([C@@H](O)c2cc(-c3ncnc4cc(N5CCOCC5)ccc34)c(F)cc2Cl)nn1 + Nc1ccc(C#CCN(C(=O)Cc2ncc(C(F)(F)F)cc2C(F)(F)F)c2ccc(F)cc2)nn1,IC50,second compound 0.0316 µM,> 10 µM
same,IC50,second compound 0.1 µM,> 10 µM
same,IC50,second compound 0.316 µM,> 10 µM
same,IC50,second compound 1 µM,> 10 µM
same,IC50,second compound 3.16 µM,> 10 µM
same,IC50,second compound 10 µM,> 10 µM
same,"viability, T/C",[1],101%
same,"viability, T/C",[2],98.1%
same,"viability, T/C",[3],102%
same,"viability, T/C",[4],93.8%
same,"viability, T/C",[5],88.3%
same,"viability, T/C",[6],71.8%
same,"viability, T/C",[7],94.4%
same,"viability, T/C",[8],108%
same,"viability, T/C",[9],97.3%
same,"viability, T/C",[10],100%
same,"viability, T/C",[11],85.5%
same,"viability, T/C",[12],83.2%
same,"viability, T/C",[13],102%
same,"viability, T/C",[14],86.2%
same,"viability, T/C",[15],111%
same,"viability, T/C",[16],89%
same,"viability, T/C",[17],106%
same,"viability, T/C",[18],86.9%
same,"viability, T/C",[19],106%
same,"viability, T/C",[20],88.5%
same,"viability, T/C",[21],95.5%
same,"viability, T/C",[22],91.9%
same,"viability, T/C",[23],88.6%
same,"viability, T/C",[24],84.1%
same,"viability, T/C",[25],109%
same,"viability, T/C",[26],105%
same,"viability, T/C",[27],92.5%
same,"viability, T/C",[28],100%
same,"viability, T/C",[29],91%
same,"viability, T/C",[30],85.4%
same,"viability, T/C",[31],122%
same,"viability, T/C",[32],111%
same,"viability, T/C",[33],98.7%
same,"viability, T/C",[34],109%
same,"viability, T/C",[35],100%
same,"viability, T/C",[36],90.1%

# Source: PubChem BioAssay AID1963852 (Molecular Pharmacology Branch, DTP, NCI, 2024)
